According to patent US20230339896A1, “HPK1 INHIBITORS AND USES THEREOF” (QILU REGOR THERAPEUTICS INC., priority 2020, published 2023):

Assays:
Human Pan T cells = experiment: IL2 & IFN-γ released by human pan T cell (ELISA); format: cell-based; details: for EC50 / Human Pan T cells EC2x (nM, IL-2): IL-2, anti-CD3/CD28 stimulation, 48 hours; for Human Pan T cells EC2x (nM, IL-2): concentration giving 200% response (2 folds) over DMSO control; for Max fold change: IL-2 response over DMSO control, human pan T cells
Description: This example is an assay method that can be used to determine compound effects on IL2 & IFN-γ release using pan T cells and ELISA assay format.
Procedures for Pan T isolation and Reagent preparation (Day 0): • 1. Cell Growth Medium: • RPMI1640: ATCC, Cat# 30-2001 • 10% FBS: Gibco, Cat# 10099141 • 1% Pen-Strep: Gibco, Cat # 15140122 • 1% Non-essential amino: Gibco, Cat #11140050 • Beta- Mercaptoethanol: Gibco, Cat#21985023 • 2. Pan T isolation buffer preparation: • Prepare a solution containing phosphate-buffered saline (PBS), pH 7.2, 0.5% bovine serum albumin (BSA), and 2 mM EDTA by diluting MACS® BSA Stock Solution (# 130-091-376) 20 times with autoMACS® Rinsing Solution. Keep buffer at 4° C. Degas buffer before use, as air bubbles could block the column.
• 3. Thawing of frozen PBMC • 1) Pre-heat medium at 37° C. water bath. • 2) Rapidly thaw cells in 37° C. water bath. • 3) Add the pre-warmed medium into 15 mL tube. Transfer cells to the tube. • 4) 300 × g centrifuge for 8 min. (centrifuge increase 0, decrease 0). • 5) Wash the PBMC using Rinsing buffer. • 6) Centrifuge PBMC at 300 × g for 8 min, wash it twice (centrifuge increase 9, decrease 1). • 7) Resuspend the cells with Pan T cells isolation buffer and count cells number. • 4. Pan T cells isolation: • Cell staining with microbead cocktail • 1) Prepare cells and determine cell number. Filter cells by 70 µm cell strainer. • 2) Resuspend cell pellet in 40 µL of buffer per 10^7 total cells. • 3) Add 10 µL of Pan T Cell Biotin-Antibody Cocktail per 10^7 total cells. • 4) Mix well and incubate for 10 minutes in the refrigerator (ice). • 5) Add 30 µL of buffer per 10^7 total cells. • 6) Add 20 µL of Pan T Cell MicroBead Cocktail per 10^7 total cells. • 7) Mix well and incubate for 15 minutes in the refrigerator (ice). • 8) Proceed to subsequent magnetic cell separation.
Subsequent manual cell separation: • 1) Place LS Column in the magnetic field of a suitable MACS Separator. For details refer to the respective MACS Column data sheet. • 2) Prepare column by rinsing with 3 mL of buffer. • 3) Apply cell suspension onto the column. Collect flow-through, which represents the enriched T cells. • 4) Wash column with 5 mL of buffer. Collect unlabeled cells that pass through, representing the enriched T cells.
Reminder: Always wait until the column reservoir is empty before proceeding to the next step. • 5. Pan T cell FACS: • 1) Take out 50 µL of PBMC and Pan T cells to FACS tubes respectively. • 2) Incubate cells with anti-human CD3/CD4/CD8 antibodies (1 µL/1 µL/1 µL /tube) for 20 min at 4° C. For unstained control, incubate cells with FACS staining buffer. • 3) Wash 2 times with cold staining buffer (PBS with 0.2%BSA and 1 mM EDTA). • 4) Run FACS. Gate CD3^+, CD3^+CD4^+, and CD3^+CD8^+ population for % analysis. • 5) If the purity of Pan T cells is higher than 90%, dilute cell suspension to 1 million cells/mL with the appropriate volume of Cell Culture Media. • 6) Dispense the cell suspension into a sterile, disposable reservoir for future use.
Procedures for preparation of compounds and anti-human CD3/CD28 (Day 0): • 1. Compound preparation • Compound serial dilution (source plate 1000×) • Compounds are solubilized in 100% DMSO to a concentration of 10 mM. Then they were 3-fold serially diluted to 8-point doses. • 4× Compound dose preparation (inter plate: Corning-3599): • Prepare 4× compound solution in culture medium. Pipet up and down. For the ZPE control, prepare 0.4% DMSO (4×) in culture medium. For the HPE control, prepare 0.4 µM of RGT003-026 (4×) in culture medium. • 2. Anti-human CD3 (stock conc. 6.76 mg/ml): stored at 4° C. • 1) Dilute anti-human CD3 with PBS to final conc. of 0.5 µg/mL. • 2) Add 50 µL /well of CD3 to each well, except for the positive and negative control wells. […] Rinse each well twice with 200 µL of sterile PBS each time. • 3. […]

HPK1 = HPK1 (Homo sapiens (Human), UniProt Q92918); experiment: HPK1 biochemical assay (ADP-GLO Kinase Assay); details: ADP-GLO, 10 µM ATP, MBP substrate; read-out: HPK1 IC50
Description: This example used the ADP-GLO™ Kinase Assay to measure the effect of potential HPK1 inhibitor compounds on HPK1 kinase activity.
The ADP-GLO™ Kinase Assay (Promega Corp., Madison, WI) measures ADP formed from a kinase reaction. According to the manufacture, the ADP formed in a kinase assay is first converted into ATP, which is then used to generate light in a luciferase reaction. The luminescence generated correlates with kinase activity. An exemplary experimental setting is described below, though minor adjustments can be made in individual assays.
Serial 3-fold dilution of compoounds from 10 µM (top concentration) to 0.508 nM (lowest concentration). Positive control is 10 µM Reference + enzyme + substrate. Negative control is 1% DMSO + enzyme + substrate.
40 mM Tris pH7.5; 20 mM MgC12, 0.1 mg/ml BSA, 50 µM DTT Buffer stock
• 1) The compounds were diluted to 1 mM, by mixing 10 µL of 10 mM respective compound stocks with 90 µL of DMSO. • 2) The compounds were then diluted 3-fold for 10 doses (5 µL to 10 µL dilution) by BRAVO. The top compound conc. was 1 mM (100×), DMSO Conc. was 100%. • 3) Transfer 100 nL of each diluted compound sample to 384-well plate (Corning-4512) by ECHO. • 4) Centrifuge the plate at 1,500 rpm for 1 minute.
20 µM ATP, 0.2 µg/µL MBP in Kinase Buffer (final concentration: 10 µM ATP, 0.1 µg/µL MBP)
• 5. Preparation of 2× HPK1 working solution with assay buffer. HPK1 final concentration was 0.6 ng/µL. […] Add 5 µL/well of 2× HPK1 working solution, Centrifuge at 1,500 rpm for 1 minute. • 7. Add 5 µL/well of 2× ATP-Substrate, Centrifuge at 1,500 rpm for 1 minute. • 8. Incubate at 25° C. for 1 hour (or 6 hours for compounds with high potency). • 9. Add 5 µL/well ADP-GLO™ Reagent to stop the kinase reaction and deplete the unconsumed ATP. Centrifuge at 1,500 rpm for 1 minute. Incubate at 25° C. for 40 min. • 10. Add 10 µL of Kinase Detection Reagent to convert ADP to ATP. Centrifuge at 1,500 rpm for 1 minute. Incubate at 25° C. for 40 min. • 11. Record luminescence signal on an Envision plate reader (384-CTG).
The percent (%) inhibition at each concentration of compound is calculated based on and relative to the signal in the High and Low control wells contained within each assay plate. […] The concentrations and % inhibition values for tested compounds were plotted and the concentration of compound required for 50% inhibition (IC50) was determined with a Three-parameter logistic dose response equation. The endpoint value (IC50) for the reference peptide/compound was evaluated in each experiment as a quality control measure. If the endpoint value was within 3-fold of the expected value, then the experiment was deemed acceptable.

HPK1, sequence (Q92918 whole entry): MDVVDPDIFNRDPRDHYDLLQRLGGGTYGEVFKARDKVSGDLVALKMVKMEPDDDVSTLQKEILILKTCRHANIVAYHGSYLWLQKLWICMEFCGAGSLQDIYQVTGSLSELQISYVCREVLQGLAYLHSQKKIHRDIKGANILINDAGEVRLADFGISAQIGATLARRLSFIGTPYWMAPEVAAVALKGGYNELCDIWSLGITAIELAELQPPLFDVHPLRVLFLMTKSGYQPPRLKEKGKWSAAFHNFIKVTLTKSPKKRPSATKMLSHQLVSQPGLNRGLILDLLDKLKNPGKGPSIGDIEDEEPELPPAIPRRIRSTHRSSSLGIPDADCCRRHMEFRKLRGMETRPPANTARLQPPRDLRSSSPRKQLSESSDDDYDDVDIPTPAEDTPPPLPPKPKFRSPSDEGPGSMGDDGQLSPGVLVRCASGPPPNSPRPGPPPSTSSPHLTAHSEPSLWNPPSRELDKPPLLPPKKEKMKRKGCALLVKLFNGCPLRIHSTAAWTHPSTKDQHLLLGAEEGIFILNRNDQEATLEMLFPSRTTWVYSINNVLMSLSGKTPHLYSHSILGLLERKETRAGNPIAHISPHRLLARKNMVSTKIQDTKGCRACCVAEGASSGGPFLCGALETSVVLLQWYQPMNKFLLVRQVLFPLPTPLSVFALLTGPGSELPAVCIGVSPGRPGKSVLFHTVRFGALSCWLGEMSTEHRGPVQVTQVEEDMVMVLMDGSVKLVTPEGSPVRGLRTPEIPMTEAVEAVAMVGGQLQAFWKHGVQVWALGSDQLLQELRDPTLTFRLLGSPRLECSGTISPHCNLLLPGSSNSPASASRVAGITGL

SMILES | EC50 (Human Pan T cells) | Human Pan T cells EC2x (nM, IL-2) (Human Pan T cells) | Max fold change (Human Pan T cells) | IC50 (HPK1) | EC50 (Human Pan T cells; Homo sapiens, T-cell)
COc1cc2c(cc1Nc1ncc(Cl)c(N3C[C@@](C)(CC(=O)O)c4ccccc43)n1)CN(C)CC2 (single isomer, unassigned) [Example 3, (S)-2-(1-(5-chloro-2-((6-methoxy-2-methyl-1,2,3,4-tetrahydroisoquinolin-7-yl)amino)pyrimidin-4-yl)-3-methylindolin-3-yl)acetic acid or (R)-2-(1-(5-chloro-2-((6-methoxy-2-methyl-1,2,3,4-tetrahydroisoquinolin-7-yl)amino)pyrimidin-4-yl)-3-methylindolin-3-yl)acetic acid] | 911 nM | > 5760 (N = 2) nM | 1.96 (N = 2) | 24 nM | –
COc1cc2c(cc1Nc1ncc(Cl)c(N3CC(C)(CC(=O)O)c4cc(F)ccc43)n1)CN(C)CC2 (centres unmarked) [Compound 9, reference compound] | – | 62 (N = 2) nM | 3.24 (N = 2) | 1.1 nM | 68 nM
